Experimental data reported in ChEMBL document CHEMBL1275440, “In vitro activity of telavancin against resistant gram-positive bacteria” (2008).
Values after ≈ are worked out from the molar mass of the structure shown. Active and inactive are the calls of the source. The rule behind the calls is not given here.

What was measured:
Type in all cases: functional
[1] = system: Staphylococcus aureus; experiment: Antibacterial activity against methicillin resistant Staphylococcus aureus MED 2028 osteomyelitis isolate assessed as bacterial count at 2 ug/ml after 2 hrs by time-kill assay
[2] = system: Staphylococcus aureus; experiment: Antibacterial activity against methicillin resistant Staphylococcus aureus MED 2028 osteomyelitis isolate assessed as bacterial count at 1 ug/ml after 24 hrs by time-kill assay
[3] = system: Streptococcus pneumoniae; experiment: Antibacterial activity against multidrug resistant Streptococcus pneumoniae MED 1090 by broth microdilution method
[4] = system: Staphylococcus epidermidis; experiment: Antibacterial activity against methicillin resistant Staphylococcus epidermidis ATCC 35984 by broth microdilution method
[5] = system: Staphylococcus aureus; experiment: Antibacterial activity against methicillin resistant Staphylococcus aureus MED 1805 bloodstream isolate by broth microdilution method
[6] = system: Streptococcus viridans; experiment: Antibacterial activity against Streptococcus viridans clinical isolate by broth microdilution method
[7] = system: Streptococcus oralis; experiment: Antibacterial activity against Streptococcus oralis clinical isolate by broth microdilution method
[8] = system: Streptococcus pneumoniae; experiment: Antibacterial activity against multidrug-resistant Streptococcus pneumoniae clinical isolate by broth microdilution method
[9] = system: Streptococcus pneumoniae; experiment: Antibacterial activity against penicillin resistant Streptococcus pneumoniae clinical isolate by broth microdilution method
[10] = Antibacterial activity against methicillin resistant coagulase-negative Staphylococcus hominis subsp. novobiosepticus clinical isolate by broth microdilution method
[11] = system: Streptococcus pyogenes; experiment: Antibacterial activity against Streptococcus pyogenes MED 2040 assessed as bacterial count at […] after 24 hrs by time-kill assay
[12] = system: Streptococcus pyogenes; experiment: Antibacterial activity against Streptococcus pyogenes MED 2040 assessed as bacterial count at 8 ug/ml after 2 hrs by time-kill assay
[13] = system: Streptococcus pyogenes; experiment: Antibacterial activity against Streptococcus pyogenes MED 2040 assessed as bacterial count at 8 ug/ml after 4 hrs by time-kill assay
[14] = system: Enterococcus faecalis; experiment: Antibacterial activity against Enterococcus faecalis ATCC 51575 assessed as bacterial count at 2 ug/ml after 4 hrs by time-kill assay
[15] = system: Enterococcus faecalis; experiment: Antibacterial activity against Enterococcus faecalis ATCC 51575 assessed as bacterial count at 4 ug/ml after 24 hrs by time-kill assay
[16] = system: Streptococcus pyogenes; experiment: Antibacterial activity against Streptococcus pyogenes MED 2040 assessed as bacterial count at […] after 2 hrs by time-kill assay
[17] = system: Streptococcus agalactiae; experiment: Antibacterial activity against Streptococcus agalactiae MED 2038 assessed as bacterial count at 8 ug/ml after 24 hrs by time-kill assay
[18] = system: Streptococcus agalactiae; experiment: Antibacterial activity against Streptococcus agalactiae MED 2038 assessed as bacterial count at 8 ug/ml after 4 hrs by time-kill assay
[19] = system: Streptococcus agalactiae; experiment: Antibacterial activity against Streptococcus agalactiae MED 2038 assessed as bacterial count at 0.5 ug/ml after 24 hrs by time-kill assay
[20] = system: Streptococcus agalactiae; experiment: Antibacterial activity against Streptococcus agalactiae MED 2038 assessed as bacterial count at 0.5 ug/ml after 8 hrs by time-kill assay
[21] = system: Streptococcus agalactiae; experiment: Antibacterial activity against Streptococcus agalactiae MED 2038 assessed as bacterial count at 0.5 ug/ml after 2 hrs by time-kill assay
[22] = system: Streptococcus agalactiae; experiment: (§1) Antibacterial activity against Streptococcus agalactiae MED 2038 assessed as bacterial count at […] after 24 hrs by time-kill assay
[23] = system: Streptococcus agalactiae; experiment: as §1; remark: listed apart in the source
[24] = system: Streptococcus agalactiae; experiment: Antibacterial activity against Streptococcus agalactiae MED 2038 assessed as bacterial count at […] after 8 hrs by time-kill assay
[25] = system: Streptococcus pneumoniae; experiment: Antibacterial activity against multidrug resistant Streptococcus pneumoniae MED 1090 assessed as bacterial count at 8 ug/ml after 24 hrs by time-kill assay
[26] = system: Streptococcus pneumoniae; experiment: Antibacterial activity against multidrug resistant Streptococcus pneumoniae MED 1090 assessed as bacterial count at 8 ug/ml after 8 hrs by time-kill assay
[27] = system: Streptococcus pneumoniae; experiment: Antibacterial activity against multidrug resistant Streptococcus pneumoniae MED 1090 assessed as bacterial count at 8 ug/ml after 4 hrs by time-kill assay
[28] = system: Streptococcus pneumoniae; experiment: Antibacterial activity against multidrug resistant Streptococcus pneumoniae MED 1090 assessed as bacterial count at 2 ug/ml after 4 hrs by time-kill assay
[29] = system: Streptococcus pneumoniae; experiment: Antibacterial activity against multidrug resistant Streptococcus pneumoniae MED 1090 assessed as bacterial count at 2 ug/ml after 2 hrs by time-kill assay
[30] = system: Staphylococcus epidermidis; experiment: Antibacterial activity against methicillin resistant Staphylococcus epidermidis ATCC 35984 assessed as bacterial count at 16 ug/ml after 24 hrs by time-kill assay
[31] = system: Staphylococcus epidermidis; experiment: Antibacterial activity against methicillin resistant Staphylococcus epidermidis ATCC 35984 assessed as bacterial count at 8 ug/ml after 24 hrs by time-kill assay
[32] = system: Staphylococcus epidermidis; experiment: Antibacterial activity against methicillin resistant Staphylococcus epidermidis ATCC 35984 assessed as bacterial count at 8 ug/ml after 4 hrs by time-kill assay
[33] = system: Staphylococcus epidermidis; experiment: Antibacterial activity against methicillin resistant Staphylococcus epidermidis ATCC 35984 assessed as bacterial count at 8 ug/ml after 2 hrs by time-kill assay
[34] = system: Staphylococcus epidermidis; experiment: Antibacterial activity against methicillin resistant Staphylococcus epidermidis ATCC 35984 assessed as bacterial count at 4 ug/ml after 4 hrs by time-kill assay
[35] = system: Staphylococcus epidermidis; experiment: Antibacterial activity against methicillin resistant Staphylococcus epidermidis ATCC 35984 assessed as bacterial count at 2 ug/ml after 24 hrs by time-kill assay
[36] = system: Staphylococcus aureus; experiment: Antibacterial activity against methicillin resistant Staphylococcus aureus MED 1805 bloodstream isolate assessed as bacterial count at 4 ug/ml after 8 hrs by time-kill assay
[37] = system: Staphylococcus aureus; experiment: Antibacterial activity against methicillin resistant Staphylococcus aureus MED 1805 bloodstream isolate assessed as bacterial count at 2 ug/ml after 8 hrs by time-kill assay
[38] = system: Staphylococcus aureus; experiment: Antibacterial activity against methicillin resistant Staphylococcus aureus MED 1805 bloodstream isolate assessed as bacterial count at 1 ug/ml after 24 hrs by time-kill assay
[39] = system: Staphylococcus aureus; experiment: Antibacterial activity against methicillin resistant Staphylococcus aureus MED 1805 bloodstream isolate assessed as bacterial count at 1 ug/ml after 8 hrs by time-kill assay
[40] = system: Staphylococcus aureus; experiment: Antibacterial activity against methicillin resistant Staphylococcus aureus MED 1805 bloodstream isolate assessed as bacterial count at 1 ug/ml after 4 hrs by time-kill assay
[41] = system: Staphylococcus aureus; experiment: Antibacterial activity against methicillin resistant Staphylococcus aureus MED 2028 osteomyelitis isolate assessed as bacterial count at 16 ug/ml after 4 hrs by time-kill assay
[42] = system: Staphylococcus aureus; experiment: Antibacterial activity against methicillin resistant Staphylococcus aureus MED 2028 osteomyelitis isolate assessed as bacterial count at 16 ug/ml after 2 hrs by time-kill assay
[43] = system: Staphylococcus aureus; experiment: Antibacterial activity against methicillin resistant Staphylococcus aureus MED 2028 osteomyelitis isolate assessed as bacterial count at 8 ug/ml after 2 hrs by time-kill assay
[44] = system: Staphylococcus aureus; experiment: Antibacterial activity against methicillin resistant Staphylococcus aureus MED 2028 osteomyelitis isolate assessed as bacterial count at 4 ug/ml after 8 hrs by time-kill assay

Work on `CCCCCCCCCCNCCN[C@@]1(C)C[C@H](O[C@H]2[C@H](Oc3c4cc5cc3Oc3ccc(cc3Cl)[C@@H](O)[C@@H](NC(=O)[C@@H](CC(C)C)NC)C(=O)N[C@@H](CC(N)=O)C(=O)N[C@H]5C(=O)N[C@H]3C(=O)N[C@H](C(=O)N[C@H](C(=O)O)c5cc(O)c(CNCP(=O)(O)O)c(O)c5-c5cc3ccc5O)[C@H](O)c3ccc(c(Cl)c3)O4)O[C@H](CO)[C@@H](O)[C@@H]2O)O[C@@H](C)[C@H]1O` [TELAVANCIN] yielded a log10CFU/ml [1] of 0.6, a log10CFU/ml [2] of 2.1 and an MIC [3] of 0.015 µg/mL (≈ 0.00854 µM). The MIC [4] was 1 µg/mL (≈ 0.57 µM), the MIC [5] was 0.5 µg/mL (≈ 0.285 µM) and the MIC [6] was 0.015 µg/mL (≈ 0.00854 µM). The MIC50 [6] was “inactive”, the MIC90 [6] was “inactive” and the MIC [7] was 0.015 µg/mL (≈ 0.00854 µM). The MIC50 [7] was “inactive”, the MIC90 [7] was “inactive” and the MIC50 [8] was 0.015 µg/mL (≈ 0.00854 µM). For the same compound, the MIC90 [8] was 0.03 µg/mL (≈ 0.0171 µM), the MIC50 [9] was 0.015 µg/mL (≈ 0.00854 µM) and the MIC90 [9] was 0.03 µg/mL (≈ 0.0171 µM). The MIC50 [10] was 0.5 µg/mL (≈ 0.285 µM), the MIC90 [10] was 1 µg/mL (≈ 0.57 µM) and the log10CFU/ml [11] was 2.2. For the same compound, the log10CFU/ml [12] was 0.6, the log10CFU/ml [13] was 1.2 and the log10CFU/ml [14] was 0.5. For the same compound, the log10CFU/ml [15] was 1.2, the log10CFU/ml [16] was 0.4 and the log10CFU/ml [17] was 3.7. The log10CFU/ml [18] was 0.9, the log10CFU/ml [19] was 3.6 and the log10CFU/ml [20] was 1.6. It also gave a log10CFU/ml [21] of 0.87, a log10CFU/ml [22] of 3.6 and a log10CFU/ml [23] of 0.6. The log10CFU/ml [24] was 2.3, the log10CFU/ml [25] was 3.4 and the log10CFU/ml [26] was 2.6. The log10CFU/ml [27] was 1.7, the log10CFU/ml [28] was 3 and the log10CFU/ml [29] was 1.8. For the same compound, the log10CFU/ml [30] was 3.3, the log10CFU/ml [31] was 3.3 and the log10CFU/ml [32] was 2.7. The log10CFU/ml [33] was 0.5, the log10CFU/ml [34] was 1.8 and the log10CFU/ml [35] was 3.1. For the same compound, the log10CFU/ml [36] was 3, the log10CFU/ml [37] was 2.7 and the log10CFU/ml [38] was 2.7. The log10CFU/ml [39] was 3.2, the log10CFU/ml [40] was 1.8 and the log10CFU/ml [41] was 0.8. The log10CFU/ml [42] was 0.3, the log10CFU/ml [43] was 0.4 and the log10CFU/ml [44] was 3.4.
